Series [1] is filed under the species Homo sapiens. Kind of series: Induction of IAP-mediated NOTCH1 protein degradation in human MOLT4 cells assessed as ratio of NOTCH1 to lamin protein level at 20 uM after 6 hrs by Western blot analysis (reference value: 100%). In kind it is cell-based. (In general: Immunoblotting shows a protein as a band on a membrane.)
In series [2] the test system is MOLT-4. Kind of series: Induction of CSL protein degradation in human MOLT4 cells assessed as ratio of CSL to lamin protein level at 50 uM after 6 hrs by Western blot analysis (reference value: 100%). In kind it is functional.
The species entered for series [3] is Homo sapiens. Description: Induction of IAP-mediated NOTCH1 protein degradation in human MOLT4 cells assessed as ratio of NOTCH1 to lamin protein level at 50 uM after 6 hrs by Western blot analysis (reference value: 100%). The format is cell-based.
The test system of series [4] is MOLT-4. Kind of series: Cytotoxicity against human MOLT4 cells at >100 uM. In kind it is cell-based.
Series [5] has as its system MOLT-4. Kind of series: Induction of CSL protein degradation in human MOLT4 cells assessed as ratio of CSL to lamin protein level at 100 uM after 6 hrs by Western blot analysis (reference value: 100%). The format is functional.
The species entered for series [6] is Homo sapiens. Kind of series: Induction of IAP-mediated NOTCH1 protein degradation in human MOLT4 cells assessed as ratio of NOTCH1 to lamin protein level at 100 uM after 6 hrs by Western blot analysis (reference value: 100%). In kind it is cell-based.
For series [7], the system named is MOLT-4. Kind of series: Induction of CSL protein degradation in human MOLT4 cells assessed as ratio of CSL to lamin protein level at 20 uM after 6 hrs by Western blot analysis (reference value: 100%). The format is functional.
For series [8], the species on record is Homo sapiens. Kind of series: Induction of IAP-mediated NOTCH1 protein degradation in human MOLT4 cells assessed as ratio of NOTCH1 to lamin protein level at 80 uM after 6 hrs by Western blot analysis (reference value: 100%). In kind it is cell-based.
The test system of series [9] is MOLT-4. Kind of series: Induction of CSL protein degradation in human MOLT4 cells assessed as ratio of CSL to lamin protein level at 70 uM after 6 hrs by Western blot analysis (reference value: 100%). In kind it is functional.
The species named for series [10] is Homo sapiens. Kind of series: Induction of IAP-mediated NOTCH1 protein degradation in human MOLT4 cells assessed as ratio of NOTCH1 to lamin protein level at 60 uM after 6 hrs by Western blot analysis (reference value: 100%). In kind it is cell-based.
Series [11] has as its system MOLT-4. Description: Induction of CSL protein degradation in human MOLT4 cells assessed as ratio of CSL to lamin protein level at 60 uM after 6 hrs by Western blot analysis (reference value: 100%). The format is functional.
Series [12] deals with MOLT-4. Description: Induction of CSL protein degradation in human MOLT4 cells assessed as ratio of CSL to lamin protein level at 80 uM after 6 hrs by Western blot analysis (reference value: 100%). The format is functional.
For series [13], the species on record is Homo sapiens. Kind of series: Induction of IAP-mediated NOTCH1 protein degradation in human MOLT4 cells assessed as ratio of NOTCH1 to lamin protein level at 70 uM after 6 hrs by Western blot analysis (reference value: 100%). The format is cell-based.
For series [14], the species on record is Homo sapiens. Kind of series: Antagonist activity IAP in human MOLT4 cells assessed as reduction in cIAP1 protein level at 50 to 80 uM after 6 hrs by Western blot analysis. In kind it is cell-based.

Active and inactive are the calls of the source. The calls are words filed in the database; no cut-off is given here. Positions of bridges follow the written chain, without caps; N, C: chain ends. Non-standard residues stand in square brackets, D forms with d. Residues, ends and D or L forms follow the SMILES beside them. Dip = N[C@H](C(=O)O)C(c1ccccc1)c1ccccc1; Chg = N[C@H](C(=O)O)C1CCCCC1; S5 = C=CCCC[C@](C)(N)C(=O)O; NMeA = CN[C@@H](C)C(=O)O; AEEA = NCCOCCOCC(=O)O; βAla = NCCC(=O)O

As to `CC[C@H](C)[C@H](NC(=O)[C@H](CCCNC(=N)N)NC(=O)[C@H](CCCNC(=N)N)NC(=O)[C@H](CCCNC(=N)N)NC(=O)[C@H](CC(C)C)NC(=O)[C@H](CCCNC(=N)N)NC(=O)[C@H](CCC(=O)O)NC(=O)CCNC(=O)COCCOCCNC(=O)[C@@H](NC(=O)[C@@H]1CCCN1C(=O)[C@@H](NC(=O)[C@H](C)NC)C1CCCCC1)C(c1ccccc1)c1ccccc1)C(=O)N[C@@H](CCC(=O)O)C(=O)N[C@@H](CC(C)C)C(=O)N[C@@H](CS)C(=O)N[C@@H](CCCNC(=N)N)C(=O)N[C@@H](CCCNC(=N)N)C(=O)N[C@@H](Cc1cnc[nH]1)C(=O)N[C@@H](Cc1cnc[nH]1)C(=O)N[C@@H](CO)C(=O)N[C@H](C(=O)O)[C@@H](C)O` (H-[NMeA][Chg]P[Dip][AEEA][βAla]ERLRRRIELCRRHHST-OH), the Ratio in the series filed under Homo sapiens [1] came to 116%; in the series with MOLT-4 [2], 108%; in the series filed under Homo sapiens [3] it was 100%; in the series with MOLT-4 [5], 99%; in the series listed under Homo sapiens [6], 85%; with MOLT-4 [7] it was 115%. In addition, the Activity entry in the series on MOLT-4 [4] is listed as “Toxic”.

As for `CC[C@H](C)[C@H](NC(=O)[C@H](CCCNC(=N)N)NC(=O)[C@H](CCCNC(=N)N)NC(=O)[C@H](CCCNC(=N)N)NC(=O)[C@H](CC(C)C)NC(=O)[C@H](CCCNC(=N)N)NC(=O)[C@H](CCC(=O)O)NC(=O)CCNC(=O)COCCOCCNC(=O)[C@@H](NC(=O)[C@@H]1CCCN1C(=O)[C@@H](NC(=O)[C@H](C)NC)C1CCCCC1)C(c1ccccc1)c1ccccc1)C(=O)N[C@@]1(C)CCC/C=C\CCC[C@@](C)(C(=O)N[C@@H](CCCNC(=N)N)C(=O)N[C@@H](Cc2cnc[nH]2)C(=O)N[C@@H](Cc2cnc[nH]2)C(=O)N[C@@H](CO)C(=O)N[C@H](C(=O)O)[C@@H](C)O)NC(=O)[C@H](CS)NC(=O)[C@H](CC(C)C)NC1=O` (H-[NMeA][Chg]P[Dip][AEEA][βAla]ERLRRRI[S5]LC[S5]RHHST-OH; staple (Z) 14-17), the Ratio in the series filed under Homo sapiens [8] was 77%; in the series listed under Homo sapiens [1], 105%; in the series with MOLT-4 [9] it was 115%; in the series on MOLT-4 [2] it was 105 - 108%; in the series listed under Homo sapiens [10], 106%; in the series filed under Homo sapiens [3], 87 to 99%. The Ratio in the series with MOLT-4 [11] came out at 104%; in the series on MOLT-4 [12], 102%; in the series with MOLT-4 [5], 115%; in the series listed under Homo sapiens [13] it was 99%; in the series listed under Homo sapiens [6], 74%; with MOLT-4 [7], 105%. In addition, the Activity entry in the series with MOLT-4 [4] is on record as “Toxic”. The inhibition result in the series listed under Homo sapiens [14] was “Active”.

As for `CC[C@H](C)[C@H](NC(=O)[C@H](CCCNC(=N)N)NC(=O)[C@H](CCCNC(=N)N)NC(=O)[C@H](CCCNC(=N)N)NC(=O)[C@H](CC(C)C)NC(=O)[C@H](CCCNC(=N)N)NC(=O)[C@H](CCC(=O)O)NC(=O)CCN)C(=O)N[C@@H](CCC(=O)O)C(=O)N[C@@H](CC(C)C)C(=O)N[C@@H](CS)C(=O)N[C@@H](CCCNC(=N)N)C(=O)N[C@@H](CCCNC(=N)N)C(=O)N[C@@H](Cc1cnc[nH]1)C(=O)N[C@@H](Cc1cnc[nH]1)C(=O)N[C@@H](CO)C(=O)N[C@H](C(=O)O)[C@@H](C)O` (H-[βAla]ERLRRRIELCRRHHST-OH), the Ratio worked out at 101% in the series filed under Homo sapiens [1]; 115% in the series with MOLT-4 [2]; 118% in the series listed under Homo sapiens [3]; 113% in the series on MOLT-4 [5]; 108% in the series filed under Homo sapiens [6]; 107% in the series on MOLT-4 [7]. Moreover, in the series with MOLT-4 [4], the Activity entry was “Toxic”.

In the case of `CC[C@H](C)[C@H](NC(=O)[C@H](CCCNC(=N)N)NC(=O)[C@H](CCCNC(=N)N)NC(=O)[C@H](CCCNC(=N)N)NC(=O)[C@H](CC(C)C)NC(=O)[C@H](CCCNC(=N)N)NC(=O)[C@H](CCC(=O)O)NC(=O)CCN)C(=O)N[C@@]1(C)CCC/C=C\CCC[C@@](C)(C(=O)N[C@@H](CCCNC(=N)N)C(=O)N[C@@H](Cc2cnc[nH]2)C(=O)N[C@@H](Cc2cnc[nH]2)C(=O)N[C@@H](CO)C(=O)N[C@H](C(=O)O)[C@@H](C)O)NC(=O)[C@H](CS)NC(=O)[C@H](CC(C)C)NC1=O` (H-[βAla]ERLRRRI[S5]LC[S5]RHHST-OH; staple (Z) 9-12), the Ratio stood at 101% in the series listed under Homo sapiens [1]; 94% in the series with MOLT-4 [2]; 105% in the series listed under Homo sapiens [3]; 93% in the series with MOLT-4 [5]; 103% in the series filed under Homo sapiens [6]; 105% in the series on MOLT-4 [7]. The Activity result with MOLT-4 [4] is recorded as “Toxic”.

Source of the values: ChEMBL document CHEMBL4043281, “Development of a peptide-based inducer of protein degradation targeting NOTCH1” (Bioorg Med Chem Lett, 2017).
